# How the values were obtained:
# Type in all cases: cell-based
# Type I collagen (COL1A1) = assay: collagen mRNA synthesis promotion (qPCR), COL1A1 in human skin fibroblasts; settings: 24 hours, mRNA by qPCR
# Experimental: (§1) Human skin fibroblasts (NHDF-Neo-Human Dermal Fibroblasts, Neonatal, Lonza, CC-2509) were purchased from Lonza and then used. The purchased cells were cultured in an incubator (37 °C, 5% CO2) using media prepared by mixing Dulbecco Modified Eagle Medium (DMEM, Thermo Fisher Scientific) with 10% fetal bovine serum (FBS) and 1% antibiotics (penicillin streptomycin).
# (§2) To analyze the efficacy of promoting collagen mRNA synthesis, human skin fibroblasts were dispensed on a 6-well plate at 1.5×10^5 cells/well and cultured in an incubator (37 °C, 5% CO2) for 24 hours. The substances were added to serum free media at an appropriate concentration/combination, and then the cells were again cultured for 24 hours under the same conditions. Thereafter, mRNA was obtained using an RNA-spin total RNA extraction kit (iNtRON Biotechnology, 17211), and cDNA was synthesized using a cDNA synthesis kit (PhileKorea Technology, ET21100). The expression level of each gene was analyzed by performing qPCR using the synthesized cDNA and taqman probes (assay ID: COL1A1-Hs00164004_m1, COL3A1-Hs00943809_m1, COL4A1-Hs00266237_m1, BNC2-Hs00417700_m1, EDAR-Hs00223468_m1).
# as §2, with “COL1A1-Hs00164004_m1,” for “COL1A1-Hs00164004_m1, COL3A1-Hs00943809_m1,”, “sgpp2-Hs00544786_m1), ADIPOQ F primer (5′-[…]-3′), and ADIPOQ R primer (5′-[…]-3′).” for “BNC2-Hs00417700_m1, EDAR-Hs00223468_m1).”
# as §2, with “PPARGC1B-Hs00993805_m1, SPATA5-Hs01047535_m1, EN1-Hs00154977_m1).” for “COL4A1-Hs00266237_m1, BNC2-Hs00417700_m1, EDAR-Hs00223468_m1).”
# ADIPOQ = ADIPOQ gene expression (qPCR) in human skin fibroblasts; settings: 24 hours, FIG. 16
# Experimental: as §1
# as §2, with “COL1A1-Hs00164004_m1,” for “COL1A1-Hs00164004_m1, COL3A1-Hs00943809_m1,”, “sgpp2-Hs00544786_m1), ADIPOQ F primer (5′-[…]-3′), and ADIPOQ R primer (5′-[…]-3′).” for “BNC2-Hs00417700_m1, EDAR-Hs00223468_m1).”
# As another example, ADIPOQ, a gene expressing adiponectin, is a substance primarily secreted in adipose tissue, and ADIPOQ in the skin is mainly known for anti-inflammatory effects thereof. […]
# [1] = system: Type IV collagen (COL4A1); assay: collagen mRNA synthesis promotion (qPCR), COL4A1 in human skin fibroblasts; settings: 24 hours, mRNA by qPCR
# Experimental: as §1, §2
# as §2, with “COL1A1-Hs00164004_m1,” for “COL1A1-Hs00164004_m1, COL3A1-Hs00943809_m1,”, “sgpp2-Hs00544786_m1), ADIPOQ F primer (5′-[…]-3′), and ADIPOQ R primer (5′-[…]-3′).” for “BNC2-Hs00417700_m1, EDAR-Hs00223468_m1).”
# PPARGC1B = PPARGC1B gene expression (qPCR) in human skin fibroblasts; settings: 24 hours, Non-treated = 1.00
# Experimental: as §1
# as §2, with “PPARGC1B-Hs00993805_m1, SPATA5-Hs01047535_m1, EN1-Hs00154977_m1).” for “COL4A1-Hs00266237_m1, BNC2-Hs00417700_m1, EDAR-Hs00223468_m1).”
# For example, PPARGC1B, one of co-activators of peroxisome proliferator activated receptor-γ (PPARγ), has been known to be associated with melanogenesis in the skin. PPARGC1B has been reported to be involved in the wrinkle formation by mitochondrial dysfunction and the wrinkle reduction by mitochondrial function recovery (Cell Death & Disease volume 9, Article number: 735 (2018)). Therefore, the increased expression level of PPARGC1B serves to restore the function of mitochondria, which are cell energy producing organelles, thereby preventing and recovering from nasolabial wrinkles, which are deeply indented wrinkles accumulated over a relatively long time. That is, it can be seen that the increase in expression level of PPARGC1B by the treatment with the substances of the present invention is effective in wrinkle improvement.
# SGPP2 = SGPP2 gene expression (qPCR) in human skin fibroblasts; settings: 24 hours, FIG. 15
# Experimental: as §1
# as §2, with “COL1A1-Hs00164004_m1,” for “COL1A1-Hs00164004_m1, COL3A1-Hs00943809_m1,”, “sgpp2-Hs00544786_m1), ADIPOQ F primer (5′-[…]-3′), and ADIPOQ R primer (5′-[…]-3′).” for “BNC2-Hs00417700_m1, EDAR-Hs00223468_m1).”
# For example, SGPP2 is a gene expressing an enzyme capable of dominantly acting in an inflammation status, and the overactivity of SGPP2 may be more vulnerable to inflammatory signals. […]
# EDAR = EDAR gene expression (qPCR) in human skin fibroblasts; settings: 24 hours, FIG. 7
# Experimental: as §1
# as §2, with “EDAR-Hs00223468_m1). […]” for “EDAR-Hs00223468_m1).”
# [2] = system: Type III collagen (COL3A1); assay: collagen mRNA synthesis promotion (qPCR), COL3A1 in human skin fibroblasts; settings: 24 hours, mRNA by qPCR
# Experimental: as §1
# as §2, with “Thereafter, mRNA was obtained using an RNA-spin total RNA extraction kit (iNtRON Biotechnology, 17211), and cDNA was synthesized using a cDNA synthesis kit (PhileKorea Technology, ET21100).” left out
# To analyze the efficacy of promoting collagen mRNA synthesis, human skin fibroblasts were dispensed on a 6-well plate at 1.5×10^5 cells/well and cultured in an incubator (37 °C, 5% CO2) for 24 hours. […] The expression level of each gene was analyzed by performing qPCR using the synthesized cDNA and taqman probes (assay ID: COL1A1-Hs00164004_m1, COL3A1-Hs00943809_m1, PPARGC1B-Hs00993805_m1, SPATA5-Hs01047535_m1, EN1-Hs00154977_m1).
# SPATA5 = SPATA5 gene expression (qPCR) in human skin fibroblasts; settings: 24 hours, Untreated = 1.00
# Experimental: as §1
# as §2, with “PPARGC1B-Hs00993805_m1, SPATA5-Hs01047535_m1, EN1-Hs00154977_m1).” for “COL4A1-Hs00266237_m1, BNC2-Hs00417700_m1, EDAR-Hs00223468_m1).”
# Although the role of SPATA5 in the skin has not been studied, SPATA5 may play a role in mitochondrial function and ATP production. […]
# BNC2 = BNC2 gene expression (qPCR) in human skin fibroblasts; settings: 24 hours, FIG. 6
# Experimental: as §1, §2
# The degrees of fine wrinkle improvement by the substances of the present invention were investigated on the basis of the polymorphism markers showing correlations with the degree of skin fine wrinkles, obtained through Example 1. […]
Compound,expression of Type I collagen (COL1A1) (Type I collagen (COL1A1)),expression of Type IV collagen (COL4A1) [1],also measured
Cc1cc(O)c2c(c1)C(=O)c1cc(O)cc(O)c1C2=O [emodin],promoted the expression,promoted the expression,expression of ADIPOQ (ADIPOQ): increased the expression
COc1ccc(-c2coc3cc(O)ccc3c2=O)cc1 [formononetin],promoted the expression,promoted the expression,expression of ADIPOQ (ADIPOQ): increased the expression
"O=C[C@@H](O)[C@@H](O)[C@H](O)[C@H](O)COP(=O)([O-])[O-].[Na+].[Na+] [sodium mannose phosphate, D-mannose-6-phosphate sodium salt]",promoted the expression,–,Gene expression level (PPARGC1B) (PPARGC1B): 1.53
CC12CCC(CC1=O)C2(C)C (centres unmarked) [camphor],promoted the expression,–,Gene expression level (PPARGC1B) (PPARGC1B): 2.63
NC(=O)c1cccnc1 [niacinamide],promoted the expression,–,Gene expression level (PPARGC1B) (PPARGC1B): 1.52
fucoidan,–,promoted the expression,expression of SGPP2 (SGPP2): inhibited the expression
C=C(C)[C@@H]1CC[C@]2(C)CC[C@@H]3[C@H](CC[C@H]4[C@@]3(C)CC[C@H]3C(C)(C)[C@@H](O)CC[C@]43C)[C@@H]12 [lupeol],–,–,expression of EDAR (EDAR): increased the expression; expression of Type III collagen (COL3A1) [2]: promoted the expression
Cc1ncc(CO)c(CO)c1O.Cl [pyridoxine HCl],promoted the expression,–,Expression level of gene (SPATA5) (SPATA5): 1.36
"NC[C@H]1CC[C@H](C(=O)O)CC1 [tranexamic acid, reference compound]",promoted the expression,–,Expression level of gene (SPATA5) (SPATA5): 1.21
O=C(CCc1ccc(O)cc1)c1c(O)cc(O)cc1O [phloretin],promoted the expression,promoted the expression,expression of Type III collagen (COL3A1) [2]: promoted the expression; expression of BNC2 (BNC2): inhibited the expression
COc1cc(/C=C/C(=O)NCCc2c[nH]c3ccc(O)cc23)ccc1O [N-feruloylserotonin],–,promoted the expression,expression of SGPP2 (SGPP2): inhibited the expression
